The values below come from patent US20110144040A1, “Acteoside and acteoside-rich plant extracts for increasing athletic performance in humans” (MN Intellectual Property Corp, LLC, priority 2009, published 2011).

Molecules are shown by their SMILES.

The test system of assay [1] is prostaglandin biosynthesis. The note with it: Arch Pharm Res 2006 29(6), 508-13; cited from earlier work.
The subject of assay [2] is athletic performance in humans. The experiment in a line: oral acteoside supplementation for athletic performance in exercising humans. It counts as in vivo, human. As to conditions: peroral, used according to recommended protocols. An excerpt: Athletic performance is defined as any sporting activity where muscle strength and/or endurance are integral to individual performance, and is inclusive of both aerobic and anaerobic metabolic conditions. This includes active athletic competition, such as baseball, football, running, or Track & Field. It also includes any exercise activity designed to improve physical performance, directly or indirectly, via an improvement in muscle protein content (size), strength, and/or endurance, such as resistance training (circuit equipment, weight training), aerobics, Pilates, and/or calisthenics. Any improvement in athletic performance must include objective increases in speed, strength, muscle size (protein content), and/or endurance. It may also involve improved recovery from fatigue following exercise or athletic competition.
This includes an ability to increase muscle strength, muscle power, endurance, and muscle protein content (size), as well as to reduce fatigue and facilitate recovery following intense exercise or athletic competition. The benefits appear almost immediately in some cases, but are more likely to occur after several weeks of regular use of acteoside or extracts containing acteoside. […]
During the course of developing this invention, an effective oral daily dosage of acteoside to improve athletic performance was determined to be between 25 mg to 2,500 mg. […]

The subject of assay [3] is free-radical induced oxidative stress. The note with it: J Pharm Pharmacol 2004 56(6) 743-8; cited from earlier work.

For `C[C@@H]1O[C@@H](O[C@@H]2[C@@H](O)[C@H](OCCc3ccc(O)c(O)c3)O[C@H](CO)[C@H]2OC(=O)/C=C/c2ccc(O)c(O)c2)[C@H](O)[C@H](O)[C@H]1O` [acteoside], the “inhibition of prostaglandin biosynthesis” value in assay [1] is recorded as “strong inhibitor”. The improving athletic performance result in assay [2] was “effective in-vivo peroral agents for improving athletic performance”. In addition, in assay [3], the “inhibition of free-radical induced oxidative stress” value is recorded as “strong inhibitor”.
